Measured values: PubChem BioAssay AID179 (DTP/NCI, 2004)
Several values for one entry are separate records, joined by “and”; a condition that tells them apart may be missing. Equal entries are not always repeated. Activity calls are given as the source filed them.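 Rule for the calls: active = compounds giving half or more protection of infected cells from virus-caused growth loss, again on retest; inactive = the rest.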

Test system: CEM cells HIV-1 protection, formazan growth assay
Assay: NCI AIDS Antiviral Assay
Details: for IC50: measured here: growth of uninfected CEM cells
Outline: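 Five concentrations of each compound were applied to infected and uninfected human CEM cells. Protection from HIV-1 was judged from growth measured with a soluble formazan assay.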

SMILES	EC50	IC50	outcome
CCOC(=O)[C@H]1Nc2ccc(OC)cc2C2c3ccccc3CC21 (some centres not stated)	> 57.5 µM	> 57.5 µM	–
O=c1[nH]c(=O)n(C2OC(CO)C(O)C2O)cc1OCc1ccccc1 (configuration not stated)	> 708 µM	> 708 µM	–
O=[N+]([O-])C1=C(c2ccccc2)SC(Br)=C(c2ccccc2)S1	> 100 µM	0.813 µM	–
Cn1c(=O)c2c(no[n+]2[O-])c2ccccc21	–	–	inactive
Cc1c2ccccc2nc(CS(C)(=O)=O)[n+]1[O-]	> 200 µM	> 200 µM	–
COc1ccc(C(=O)C(C(=O)CC(=O)Nc2cccc(C(F)(F)F)c2)c2ccc(OC)cc2)cc1 (configuration not stated)	> 14.8 µM	> 14.8 µM	–
Cc1cnc(NCCCN(C)C)c2c1[nH]c1ccc3ccccc3c12	> 2 µM	0.316 µM	–
CC(=O)Nc1ccc2c(C)c3c4ccccc4n(C)c3nc2n1	> 200 µM	5.25 µM	–
C=C(C)C(CC=C(C)C)CC12CC(CC=C(C)C)C(C)(C)C(CC=C(C)C)(C(=O)C(Cc3ccc(O)c(O)c3)=C1O)C2=O (configuration not stated)	> 200 µM	158 µM	–
CC(=O)OCC1(C)C(OC(C)=O)CCC2(C)C(CC(OC(C)=O)C3=CCOC3=O)C(O)(CO)CCC12 (configuration not stated)	–	–	inactive
O=C1CCCC2=C1CC1=C(CCCC1=O)N2c1ccc(Cl)cc1	> 200 µM	105 µM	–
CCOC(=O)/C=C/CC(C)n1cc(C)c(=O)[nH]c1=O (configuration not stated)	–	–	inactive
CCCCSCCC(N)P(=O)(O)O (configuration not stated)	> 200 µM	> 200 µM	–
COc1ccc(C(c2c(O)c3ccccc3oc2=O)N2CCCC2)cc1 (configuration not stated)	> 200 µM	123 µM	–
Cc1ccc(C2(c3ccc(F)cc3)OC(=O)c3ccccc32)c(O)c1 (configuration not stated)	–	–	inactive
Cc1cc(C(=O)c2ccccc2)c2oc(-c3ccccc3)c(Cl)c(=O)c2c1	> 47.9 µM	> 47.9 µM	–
COc1ccc(/C=C2\CCCC(CN(C)C)C2=O)cc1 (configuration not stated)	> 200 µM	1.02 µM	–
S=C(N/N=C/c1ccccc1)NC12CC3CC(CC(C3)C1)C2	–	–	inactive
CCN(CC)/C(=C\Cl)Nc1ccccn1	> 759 µM	117 µM	–
CC(C)CCCC(C)[C@H]1CC[C@H]2[C@@H]3CC[C@H]4C[C@@H](CCC=C(c5cc(Cl)c(OCc6ccc(CC(=O)O)cc6)c(C(=O)O)c5)c5cc(Cl)c(OCc6ccc(CC(=O)O)cc6)c(C(=O)O)c5)CC[C@]4(C)[C@H]3CC[C@]12C (some centres not stated)	1.7 µM and 1.41 µM	115 µM and 20 µM	–
N#Cc1c(-c2ccccc2)nc(-c2ccccc2)sc1=S	> 100 µM	> 100 µM	–
c1ccc(Oc2ncnc3ccccc23)cc1	> 200 µM	63.1 µM	–

SMILES	EC50	IC50	outcome
O=c1cc(-c2ccc(O)cc2)oc2cc(O)cc(O)c12	> 55 µM	20.4 µM	–
Nc1ccn(C2CC(O)C(COP(=O)(O)OC3C(COP(=O)(O)O)OCC3n3cnc4c(N)ncnc43)O2)c(=O)n1 (configuration not stated)	> 200 µM	> 200 µM	–
OC[C@H]1NC[C@@H](O)[C@@H](O)[C@H]1O	–	–	inactive
COc1cc(C(=O)C(CO)Oc2ccccc2OC)ccc1O (configuration not stated)	> 794 µM	123 µM	–
O=C(O)CP(=S)(S)c1ccccc1 (configuration not stated)	> 5620 µM	> 5620 µM	–
O=C(O)CNC(=O)c1ccccc1SC(=O)CCCC[n+]1ccccc1	> 200 µM	> 200 µM	–
OCC1OC(n2ccc3c2ncn2cnnc32)C(O)C1O (configuration not stated)	> 309 µM	29.5 µM	–
CCCCCCCCCCCCCCCCCCNc1nc(=O)n(C2CC(OC(C)=O)C(COP(=O)(O)OCC3CCC(n4ccc(NC(=O)CCCCCCCCCCCCCCC)nc4=O)O3)O2)cc1F (configuration not stated)	10 µM	44.7 µM	–
Nc1n[nH]c(N)n1	> 2510 µM	> 200 µM and 282 µM	–
CCOC(=O)Cc1[nH]c(C(=O)c2ccccc2)cc1C(=O)c1ccccc1	> 200 µM	30.2 µM	–
CN(C)c1ccc(/C=C(\NC(=O)c2ccccc2)C(=O)NC(CC(=O)O)C(=O)O)cc1 (configuration not stated)	–	–	inactive
O=C(Cc1ccc([N+](=O)[O-])cc1)OCC#CCOC(=O)Cc1ccc([N+](=O)[O-])cc1	> 200 µM	> 200 µM	–
CC(=O)N(O)c1ccccc1-c1ccccc1	> 200 µM	102 µM	–
O=C1OC(=O)C2C1C(c1ccccc1[N+](=O)[O-])C=C(c1ccco1)N2c1ccncc1 (configuration not stated)	> 20 µM	2.51 µM	–
O=c1c2ccccc2[se]n1-c1ccc(Cl)cc1	8.13 µM	23.4 µM	–
Cc1ccc(C2C(C(=O)C(C)(C)C)N2S(=O)(=O)c2ccc(C)cc2)cc1 (configuration not stated)	> 200 µM	> 200 µM	–
C/C(=N/Nc1ccc([N+](=O)[O-])cc1[N+](=O)[O-])c1ccccc1	> 3.47 µM	> 3.47 µM	–
COC[C@]12CN(C=O)[C@H]3C4[C@H](OC)[C@H]1C3([C@@H](OC)C[C@H]2O)[C@@H]1C[C@@]2(O)[C@H](OC(=O)c3ccccc3)[C@@H]1[C@]4(OC(C)=O)[C@@H](O)[C@@H]2OC	> 200 µM	> 200 µM	–
CC(Oc1ccc2c(-c3ccc(Cl)cc3)cc(=O)oc2c1)C(=O)O (configuration not stated)	–	–	inactive
C/C(=C\CO)CCC1=C(C=O)C[C@H](OC2OCC(O)C(O)C2O)C2[C@@](C)(CO)CCC[C@]12C (some centres not stated)	> 263 µM	> 263 µM	–
COc1cc(CC(=O)O)c(C(=O)c2ccc([N+](=O)[O-])cc2)cc1OC	> 200 µM	> 200 µM	–
COC(=O)C(=O)C(C(=O)C(=O)Nc1ccccc1OC)c1nc2ccc([N+](=O)[O-])cc2[nH]c1=O (configuration not stated)	> 537 µM	95.5 µM	–

SMILES	EC50	IC50	outcome
CCCC1(N2C(=O)c3ccc4c5c(ccc(c35)C2=O)N(C2(CCC)CCCCC2)C4=O)CCCCC1	> 100 µM	> 100 µM	–
Cc1cc(=O)c(C#N)c(C)s1	> 200 µM	> 200 µM	–
Cc1c(-c2nc(N)c(C#N)c(N)c2C#N)c(=O)oc2ccccc12	> 200 µM	115 µM	–
O=C(OCCN1CCCC1)c1cc2ccccc2[nH]1	> 200 µM	> 100 µM	–
COC(=O)c1c(C)cc(C)cc1OC	> 200 µM	151 µM	–
NNc1nncc2n[nH]nc12	> 200 µM	> 200 µM	–
CC(=Nc1ccccc1C(=O)O)c1c(O)ccc2c(C)cc(=O)oc12	> 107 µM	> 107 µM	–
CCOC(=O)C1=C(C)NC(C)=C(C(=O)OCC)C1c1cccc([N+](=O)[O-])c1	–	–	inactive
CC(C)/C(Cl)=N\OC(NC(=O)P(=O)(c1ccccc1)c1ccccc1)(C(F)(F)F)C(F)(F)F	> 200 µM	10.5 µM	–
CC(=O)NC(=O)CC(=O)c1ccccc1	> 631 µM	> 631 µM	–
c1ccc(C(NC2=NCCO2)c2ccccc2)cc1	–	–	inactive
COP(=O)(Cc1ccccc1)Cc1ccccc1	> 200 µM	> 200 µM	–
CC1(C)O[C@@H]2[C@@H](COC(C)(C)O[C@H]2C2SCCCS2)O1	> 200 µM	> 200 µM	–
COc1ccc(C(O)/C(=C/n2ccnc2)c2ccccc2)cc1OC (configuration not stated)	> 537 µM	> 537 µM	–
COc1ccc(CC2COC(=O)[C@@H]2Cc2ccccc2)cc1OC (some centres not stated)	> 200 µM	75.9 µM	–
O=C(O)Cc1cc(=O)[nH]c2c1/C(=N/O)CCC2	–	–	inactive
COc1cc(/C=C\c2ccc(SC)cc2)cc(OC)c1OC	> 42.7 µM	0.0724 µM	–
O=C(CN1CCCCC1)N1CCc2c([nH]c3ccccc23)C1c1cccnc1 (configuration not stated)	> 26.9 µM	> 26.9 µM	–
COC1O[C@H]2[C@H]3[C@@H]1[C@@H](OS(=O)(=O)c1ccc(C)cc1)C(=O)N3C[C@H]2O (some centres not stated)	18.2 µM	141 µM	–
CCCCCC(/C=N/Nc1ccccc1)C(O)(C(F)(F)F)C(F)(F)F (configuration not stated)	> 200 µM	105 µM	–
Brc1cccc(C2SCc3nc4ccccc4n32)c1 (configuration not stated)	–	–	inactive
c1ccc(P(OCCCCOP(c2ccccc2)c2ccccc2)c2ccccc2)cc1	> 200 µM	85.1 µM	–

SMILES	EC50	IC50	outcome
O=C(/C=C/c1ccccc1)CCC1C(=O)c2ccccc2C1=O	> 23.4 µM	> 23.4 µM	–
Nc1ccc(C(=O)NN2C(=O)C(Cl)C2c2cc(Br)cc(Br)c2O)cc1 (configuration not stated)	> 200 µM	15.5 µM	–
CCCCCC=C(c1cc(Br)cc(C(=O)O)c1O)c1cc(Br)cc(C(=O)O)c1O	> 166 µM	15.8 µM	–
CN1C(=O)CCC2[C@@H]3CC=C4C[C@@H](O)CC[C@]4(C)C3CC[C@@]21C (some centres not stated)	–	–	inactive
Nc1c(N=Nc2ccc(CCc3ccc(N=Nc4cc(S(=O)(=O)O)c5cccc(S(=O)(=O)O)c5c4N)cc3S(=O)(=O)O)c(S(=O)(=O)O)c2)cc(S(=O)(=O)O)c2cccc(S(=O)(=O)O)c12	6.31 µM	148 µM	–
COC(=O)c1cc(C(c2cc(C(=O)OC)c(OC)c(Br)c2C)C(Cl)Cl)c(C)c(Br)c1OC	> 200 µM	10 µM	–
COc1ccc(/C(C#N)=C/c2ccc(OC)c(OC)c2)cc1	> 200 µM	64.6 µM and > 33.9 µM	–
CSC(=S)Nc1cc(C)cc(C)n1	> 200 µM	> 200 µM	–
CCCCC1C(=O)N2[C@H](OC[C@@H]2C(C)C)O[C@@H]1C (some centres not stated)	> 977 µM	501 µM	–
Cc1ccc(-c2c(C#N)c(-c3ccccc3)n(NS(=O)(=O)c3ccccc3)c(=O)c2C#N)cc1	> 200 µM	28.8 µM	–
COc1cc2noc(-c3ccccc3)c2cc1OC	–	–	inactive
Cc1cccc(C(C)(C)C)c1NC(=O)CCc1nc(=S)[nH][nH]1	> 562 µM	240 µM	–
CC1=C(C(=O)CC(=O)C(=O)Nc2ccccc2)Sc2ccccc2N1	> 178 µM	> 178 µM	–
COc1c[c]([Hg][O]C(C)=O)c(OC)c(NC(=O)CC(C)=O)[c]1[Hg][O]C(C)=O	> 0.724 µM	> 0.724 µM	–
CCOP(=O)(O)C1C(CO)OC(n2ccc(=O)[nH]c2=O)C1O (configuration not stated)	> 200 µM	> 200 µM	–
Cc1cc(NC(=O)c2ccc(N=Nc3cc(S(=O)(=O)O)c4ccccc4c3O)cc2)ccc1N=Nc1ccc2cc(S(=O)(=O)O)cc(S(=O)(=O)O)c2c1	–	–	active
CCCCCCSC[C@H](OC(C)=O)[C@@H](OC(C)=O)[C@@H](OC(C)=O)[C@@H](COC(C)=O)OC(C)=O	> 200 µM	53.7 µM	–
COC(=O)C1C(C(=O)OC)C1(Br)CBr (configuration not stated)	> 200 µM	5.89 µM	–
Cc1cccc2c1c(=O)c1c(O)c3c(cc1n2C)OC(C)(C)C=C3	> 200 µM	87.1 µM	–
CCOc1ccc(NC(=O)C(=O)Nn2c(N)nnc2N)cc1	> 61.7 µM	> 61.7 µM	–
